From patent US20150284452A1, “ANTIMICROBIAL COMPOSITIONS” (priority 2012, published 2015)

Test system: S. aureus NRS384 (USA300)
Assay: MIC assay at multiple inoculum sizes
Format: cell-based, Staphylococcus aureus
Description: 5×10^6 cfu/ml and 75 nanomolar against an inoculum of 5×10^8 cfu/ml.

[1] = High Titer 5,000,000 CFU/well, ND = higher than highest tested concentration
[2] = High Titer 500,000,000 CFU/well, ND = higher than highest tested concentration
[3] = Low Titer 50,000,000 CFU/well, ND = higher than highest tested concentration

Lysostaphin (Sigma L9043): lysostaphin control (Sigma L9043), glycylglycine endopeptidase
MIC Rep 1 [1]: 0.0271 µM
MIC Rep 2 [1]: 0.0271 µM
MIC Ave (High Titer 5,000,000 CFU/well, average of replicates): 0.0271 µM
MIC Ave [2]: 0.2 µM
MIC Rep 2 [2]: 0.2 µM
MIC Rep 1 (Low Titer 50,000 CFU/well): 0.054 µM
MIC Rep 2 (Low Titer 50,000 CFU/well): 0.0271 µM
MIC Ave (Low Titer 50,000 CFU/well, average of replicates): 0.0407 µM
MIC Ave [3]: 0.2 µM
MIC Rep 1 [3]: 0.2 µM
MIC Rep 2 [3]: 0.2 µM
